Measurements taken from US9365522B2, “Pyrazole amide derivative” (AMGEN INC., priority 2015, dated 2016).

Target: T1, ligand binding domain of human ROR gamma (Homo sapiens, UniProt P51449)
T1 construct: NM_001001523; expressed in transfected cells; host or cells: HEK293T
T1 sequence (P51449 247-497 isoform P51449-2): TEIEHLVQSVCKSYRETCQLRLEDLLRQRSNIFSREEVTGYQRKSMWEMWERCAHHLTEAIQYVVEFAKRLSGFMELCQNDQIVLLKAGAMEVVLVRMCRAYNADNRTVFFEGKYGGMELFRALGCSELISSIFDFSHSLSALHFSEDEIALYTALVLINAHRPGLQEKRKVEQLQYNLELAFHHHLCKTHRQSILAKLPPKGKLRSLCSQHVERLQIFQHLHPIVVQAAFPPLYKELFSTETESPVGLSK
Assay: ROR gamma reporter gene assay (GAL4-RORγ LBD luciferase, Dual-Glo)
Format: cell-based
Conditions: HEK293T cells transfected with pM-ROR gamma, 8 concentrations 3.5 nM to 10.5 μM, 24 h incubation; for IC50: read-out: result (pIC50, inhibition of RORγ transcriptional activity) (converted)
Summary of the method: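 HEK293T cells co-transfected with GAL4-DBD fused to human RORγ LBD (aa 247-497), 5×UAS firefly luciferase reporter and CMV-renilla, in charcoal-stripped serum.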

SMILES | result (pIC50, inhibition of RORγ transcriptional activity) | IC50 [pM]
CC(C)(C)CN(CC(=O)c1c(Cl)cncc1Cl)C(=O)c1cnn(C2CCC(C)(C(=O)O)CC2)c1Cl (stereo not drawn) [Example 276, trans-4-(5-chloro-4-((2-(3,5-dichloropyridin-4-yl)-2-oxoethyl)-(2,2-dimethylpropyl)carbamoyl)pyrazol-1-yl)-1-methylcyclohexane-1-carboxylic acid] | 6.91 | –
Cc1cc(Cl)c(C(=O)CN(C(=O)c2cnn([C@H]3CC[C@](C)(C(=O)O)CC3)c2C(F)(F)F)[C@H]2C[C@@H]3[C@H](C2)C3(C)C)c(Cl)c1 [Example 277, trans-4-(4-((2-(2,6-dichloro-4-methylphenyl)-2-oxoethyl)((1R,3r,5S)-6,6-dimethylbicyclo[3.1.0]hexan-3-yl)carbamoyl)-5-(trifluoromethyl)-1H-pyrazol-1-yl)-1-methylcyclohexanecarboxylic acid] | – | 7240
CC1(C)[C@@H]2C[C@H](N(CC(=O)c3c(Cl)cccc3Cl)C(=O)c3cnn([C@H]4CC[C@](C)(C(=O)O)CC4)c3C(F)(F)F)C[C@@H]21 [Example 278, trans-4-(4-((2-(2,6-dichlorophenyl)-2-oxoethyl)((1R,3r,5S)-6,6-dimethylbicyclo[3.1.0]hexan-3-yl)carbamoyl)-5-(trifluoromethyl)-1H-pyrazol-1-yl)-1-methylcyclohexanecarboxylic acid] | – | 11700
Cc1cc(C)c(C(=O)CN(C(=O)c2cnn([C@H]3CC[C@](C)(C(=O)O)CC3)c2C(F)(F)F)C2CCC(C)(C)CC2)c(Cl)c1 [Example 279, trans-4-(4-((2-(2-chloro-4,6-dimethylphenyl)-2-oxoethyl)-(4,4-dimethylcyclohexyl)carbamoyl)-5-(trifluoromethyl)pyrazol-1-yl)-1-methylcyclohexane-1-carboxylic acid] | – | 38000
Cc1cc(Cl)cc(C)c1C(=O)CN(C(=O)c1cnn([C@H]2CC[C@](C)(C(=O)O)CC2)c1C(F)(F)F)C1CCC(C)(C)CC1 [Example 280, trans-4-(4-((2-(4-chloro-2,6-dimethylphenyl)-2-oxoethyl)-(4,4-dimethylcyclohexyl)carbamoyl)-5-(trifluoromethyl)pyrazol-1-yl)-1-methylcyclohexane-1-carboxylic acid] | – | 245000
C[C@]1(C(=O)O)CC[C@H](n2ncc(C(=O)N(CC(=O)c3c(Cl)cccc3Cl)CC3(F)CCCC3)c2C(F)(F)F)CC1 [Example 281, trans-4-(4-((2-(2,6-dichlorophenyl)-2-oxoethyl)-((1-fluorocyclopentyl)methyl)carbamoyl)-5-(trifluoromethyl)pyrazol-1-yl)-1-methylcyclohexane-1-carboxylic acid] | – | 4270
Cc1cc(Cl)c(C(=O)CN(CC2(F)CCCC2)C(=O)c2cnn([C@H]3CC[C@](C)(C(=O)O)CC3)c2C(F)(F)F)c(Cl)c1 [Example 282, trans-4-(4-((2-(2,6-dichloro-4-methylphenyl)-2-oxoethyl)-((1-fluorocyclopentyl)methyl)carbamoyl)-5-(trifluoromethyl)pyrazol-1-yl)-1-methylcyclohexane-1-carboxylic acid] | – | 3390
CC1(C)CCC(N(CC(=O)c2c(Cl)cccc2Cl)C(=O)c2cnn([C@H]3CC[C@](C)(C(=O)O)CC3)c2C(F)(F)F)CC1 [Example 283, trans-4-(4-((2-(2,6-dichlorophenyl)-2-oxoethyl)-(4,4-dimethylcyclohexyl)carbamoyl)-5-(trifluoromethyl)pyrazol-1-yl)-1-methylcyclohexane-1-carboxylic acid] | – | 9120
CC(C)(C)CN(CC(=O)c1c(Cl)cccc1Cl)C(=O)c1cnn([C@H]2CC[C@](C)(C(=O)O)CC2)c1C(F)(F)F [Example 284, trans-4-(4-((2-(2,6-dichlorophenyl)-2-oxoethyl)-(2,2-dimethylpropyl)carbamoyl)-5-(trifluoromethyl)pyrazol-1-yl)-1-methylcyclohexane-1-carboxylic acid] | – | 11200
CCC(C)(C)CN(CC(=O)c1c(Cl)cncc1Cl)C(=O)c1cnn([C@H]2CC[C@](C)(C(=O)O)CC2)c1C(F)(F)F [Example 286, trans-4-(4-((2-(3,5-dichioropyridin-4-yl)-2-oxoethyl)-(2,2-dimethylbutyl)carbamoyl)-5-(trifluoromethyl)pyrazol-1-yl)-1-methylcyclohexane-1-carboxylic acid] | – | 9120
CCC(CC)N(CC(=O)c1c(Cl)cncc1Cl)C(=O)c1cnn([C@H]2CC[C@](C)(C(=O)O)CC2)c1C(F)(F)F [Example 287, trans-4-(4-((2-(3,5-dichloropyridin-4-yl)-2-oxoethyl)-pentan-3-ylcarbamoyl)-5-(trifluoromethyl)pyrazol-1-yl)-1-methylcyclohexane-1-carboxylic acid] | – | 1.2e+06
CCC(C)(C)CN(CC(=O)c1c(Cl)cncc1Cl)C(=O)c1cnn(C23CCC(C(=O)O)(CC2)CC3)c1C(F)(F)F [Example 288, 4-(4-((2-(3,5-dichloropyridin-4-yl)-2-oxoethyl)-(2,2-dimethylbutyl)carbamoyl)-5-(trifluoromethyl)pyrazol-1-yl)bicyclo[2.2.2]octane-1-carboxylic acid] | – | 11700
C[C@]1(C(=O)O)CC[C@H](n2ncc(C(=O)N(CC(=O)c3c(Cl)cc(Cl)cc3Cl)C3CCC4(CC3)COC4)c2C(F)(F)F)CC1 [Example 289, trans-1-methyl-4-(4-(2-oxaspiro[3.5]nonan-7-yl-(2-oxo-2-(2,4,6-trichlorophenyl)ethyl)carbamoyl)-5-(trifluoromethyl)pyrazol-1-yl)cyclohexane-1-carboxylic acid] | – | 93300
CC1(C)CCC(N(CC(=O)c2c(Cl)cc(F)cc2Cl)C(=O)c2cnn([C@H]3C[C@H](C(=O)O)C3)c2C(F)(F)F)CC1 [Example 290, trans-3-(4-((2-(2,6-dichloro-4-fluorophenyl)-2-oxoethyl)-(4,4-dimethylcyclohexyl)carbamoyl)-5-(trifluoromethyl)pyrazol-1-yl)cyclobutane-1-carboxylic acid] | – | 191000
CC1(C)CCC(N(CC(=O)c2c(Cl)cc(F)cc2Cl)C(=O)c2cnn([C@H]3C[C@@H](C(=O)O)C3)c2C(F)(F)F)CC1 [Example 291, cis-3-(4-((2-(2,6-dichloro-4-fluorophenyl)-2-oxoethyl)-(4,4-dimethylcyclohexyl)carbamoyl)-5-(trifluoromethyl)pyrazol-1-yl)cyclobutane-1-carboxylic acid] | – | 1.02e+06
CC(C)(C)OCCN(CC(=O)c1c(Cl)cc(F)cc1Cl)C(=O)c1cnn([C@H]2CC[C@](C)(C(=O)O)CC2)c1C(F)(F)F [Example 292, trans-4-(4-((2-(2,6-dichloro-4-fluorophenyl)-2-oxoethyl)-(2-((2-methylpropan-2-yl)oxy)ethyl)carbamoyl)-5-(trifluoromethyl)pyrazol-1-yl)-1-methylcyclohexane-1-carboxylic acid] | – | 47900
CC(C)(C)OCCN(CC(=O)c1c(Cl)cc(Cl)cc1Cl)C(=O)c1cnn([C@H]2CC[C@](C)(C(=O)O)CC2)c1C(F)(F)F [Example 293, trans-1-methyl-4-(4-(2-((2-methylpropan-2-yl)oxy)ethyl-(2-oxo-2-(2,4,6-trichlorophenyl)ethyl)carbamoyl)-5-(trifluoromethyl)pyrazol-1-yl)cyclohexane-1-carboxylic acid] | – | 33100
CC(C)(C)CN(CC(=O)c1c(F)cncc1Cl)C(=O)c1cnn([C@H]2CC[C@](C)(C(=O)O)CC2)c1C(F)(F)F [Example 294, trans-4-(4-((2-(3-chloro-5-fluoropyridin-4-yl)-2-oxoethyl)-(2,2-dimethylpropyl)carbamoyl)-5-(trifluoromethyl)pyrazol-1-yl)-1-methylcyclohexane-1-carboxylic acid] | – | 49000
CN1CCC(N(CC(=O)c2c(Cl)cc(F)cc2Cl)C(=O)c2cnn([C@H]3CC[C@](C)(C(=O)O)CC3)c2C(F)(F)F)CC1 [Example 295, trans-4-(4-((2-(2,6-dichloro-4-fluorophenyl)-2-oxoethyl)-(1-methylpiperidin-4-yl)carbamoyl)-5-(trifluoromethyl)pyrazol-1-yl)-1-methylcyclohexane-1-carboxylic acid] | – | 5.62e+06
CC(C)N1CCC(N(CC(=O)c2c(Cl)cc(F)cc2Cl)C(=O)c2cnn([C@H]3CC[C@](C)(C(=O)O)CC3)c2C(F)(F)F)CC1 [Example 296, trans-4-(4-((2-(2,6-dichloro-4-fluorophenyl)-2-oxoethyl)-(1-propan-2-ylpiperidin-4-yl)carbamoyl)-5-(trifluoromethyl)pyrazol-1-yl)-1-methylcyclohexane-1-carboxylic acid] | – | > 1.05e+07
CC(C)(C)CN(CC(=O)c1c(F)cccc1Cl)C(=O)c1cnn([C@H]2CC[C@](C)(C(=O)O)CC2)c1C(F)(F)F [Example 297, trans-4-(4-((2-(2-chloro-6-fluorophenyl)-2-oxoethyl)-(2,2-dimethylpropyl)carbamoyl)-5-(trifluoromethyl)pyrazol-1-yl)-1-methylcyclohexane-1-carboxylic acid] | – | 66100
O=C(CN(CC1(F)CCCC1)C(=O)c1cnn(C23CCC(C(=O)O)(CC2)CC3)c1C(F)(F)F)c1c(Cl)cc(Cl)cc1Cl [Example 298, 4-(4-((1-fluorocyclopentyl)methyl-(2-oxo-2-(2,4,6-trichlorophenyl)ethyl)carbamoyl)-5-(trifluoromethyl)pyrazol-1-yl)bicyclo[2.2.2]octane-1-carboxylic acid] | – | 12900
